The target in assay [1] is CK1α (Homo sapiens, UniProt P48729). The experiment in a line: CK1α inhibition IC50. The assay is classed as biochemical.
The test system of assay [2] is DUX4. The experiment in a line: high-content immunocytochemistry assay of endogenous DUX4 expression in differentiating primary FSHD myotubes. Particulars: for EC50: Homo sapiens, Myotube. It counts as cell-based, human. An excerpt: A quantitative assay readout was developed based on script-based image analysis. […] To analyse the images, an automated script was developed, enabling the detection of nuclei, myotube borders and DUX4 signals, with the script also detecting artefacts to reduce false positive signals. The script enabled multiple validated readouts including the number of DUX4 positive nuclei and nuclei clusters, the fusion index, myotube area, myotube width and myotube skeleton length (see FIG. 2). Additionally, the total nuclei count was included as a measure of cell loss or compound toxicity.
A compound library containing approximately 5000 annotated compounds was screened in the high-content assay. For this purpose, primary myoblasts were seeded in 384 well plates after which the growth medium was replaced with differentiation medium. After 3 days of differentiation, cells were treated with library compounds (in duplicate on different screening plates) for 15 h, after which they were fixed and stained with antibodies against DUX4, antibodies against myosin heavy chain (MHC), and with DAPI (4′,6-diamidino-2-phenylindole). Script-based analysis provided readouts for DUX4 expression (count of DUX4-positive nuclei or DUX4 intensity) and for potential toxicity (fusion index and nuclei count).
Compounds were incubated with primary FSHD cells for 15 hours, as indicated by the arrow in FIG. 4A.
Compounds are administered either 15 h before fixation, resembling the original screening protocol, or 72 h before fixation (grey arrow). In the latter case, compounds are present during the whole differentiation process.

The target in assay [3] is CK1δ (Homo sapiens, UniProt P48730). The experiment in a line: CK1δ inhibition IC50. It counts as biochemical.
Assay [4] has as its target p38α (Homo sapiens, UniProt Q16539). The experiment in a line: p38α inhibition IC50. It counts as biochemical.
For assay [5], the target named is CK1ε (Homo sapiens, UniProt P49674). The experiment in a line: CK1ε inhibition IC50. The assay is classed as biochemical.
Setting [6] is: Table 7, p38 compounds, read-out: IC50 CK1a.
Setting [7] is: 72 h, Table 4, 72 h treatment protocol, read-out: DUX4 EC50.
Where [8] appears, read: 72 h, Table 6, 72 h treatment protocol, read-out: DUX4 EC50.

This is an account of results in patent publication US20220226340A1, “CASEIN KINASE 1 INHIBITORS FOR USE IN THE TREATMENT OF DISEASES RELATED TO DUX4 EXPRESSION SUCH AS MUSCULAR DYSTROPHY AND CANCER” (Facio Intellectual Property B.V., priority 2019, published 2022).

Like-named read-outs stand apart in the source and are kept apart here. Some results are limits rather than exact numbers.

Sequence of p38α (Q16539 whole entry): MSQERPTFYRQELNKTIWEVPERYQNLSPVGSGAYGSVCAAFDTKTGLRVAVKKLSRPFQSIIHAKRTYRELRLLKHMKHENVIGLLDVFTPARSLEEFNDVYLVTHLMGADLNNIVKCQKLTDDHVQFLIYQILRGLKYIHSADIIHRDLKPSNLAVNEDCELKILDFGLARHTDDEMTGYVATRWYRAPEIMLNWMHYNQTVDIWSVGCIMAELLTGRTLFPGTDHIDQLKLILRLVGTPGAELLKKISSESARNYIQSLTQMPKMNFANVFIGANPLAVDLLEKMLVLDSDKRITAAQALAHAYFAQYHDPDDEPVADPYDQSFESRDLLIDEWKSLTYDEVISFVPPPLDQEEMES
Sequence of CK1ε (P49674 whole entry): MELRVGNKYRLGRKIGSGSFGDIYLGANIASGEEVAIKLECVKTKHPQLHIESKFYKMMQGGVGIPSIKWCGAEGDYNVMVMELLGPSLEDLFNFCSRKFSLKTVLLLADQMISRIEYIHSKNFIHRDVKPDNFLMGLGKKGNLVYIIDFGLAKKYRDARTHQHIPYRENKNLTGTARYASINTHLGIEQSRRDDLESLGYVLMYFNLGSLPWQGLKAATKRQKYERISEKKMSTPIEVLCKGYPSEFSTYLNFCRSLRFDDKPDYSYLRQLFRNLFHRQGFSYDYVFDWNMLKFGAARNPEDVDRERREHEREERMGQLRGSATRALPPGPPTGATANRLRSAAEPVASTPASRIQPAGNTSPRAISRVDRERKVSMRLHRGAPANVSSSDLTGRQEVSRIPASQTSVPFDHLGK
Sequence of CK1δ (P48730 whole entry): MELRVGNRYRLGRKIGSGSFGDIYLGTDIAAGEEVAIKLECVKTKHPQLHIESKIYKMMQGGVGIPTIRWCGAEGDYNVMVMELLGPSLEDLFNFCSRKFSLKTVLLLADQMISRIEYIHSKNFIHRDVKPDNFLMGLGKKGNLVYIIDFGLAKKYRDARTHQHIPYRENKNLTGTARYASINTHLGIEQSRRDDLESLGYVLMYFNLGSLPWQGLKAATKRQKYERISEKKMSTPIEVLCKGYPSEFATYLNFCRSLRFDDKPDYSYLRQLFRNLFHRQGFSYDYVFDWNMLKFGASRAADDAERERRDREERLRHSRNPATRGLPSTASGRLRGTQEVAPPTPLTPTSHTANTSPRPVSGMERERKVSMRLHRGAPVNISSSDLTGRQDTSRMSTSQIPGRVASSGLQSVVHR
Sequence of CK1α (P48729 whole entry, the tested form may be a part): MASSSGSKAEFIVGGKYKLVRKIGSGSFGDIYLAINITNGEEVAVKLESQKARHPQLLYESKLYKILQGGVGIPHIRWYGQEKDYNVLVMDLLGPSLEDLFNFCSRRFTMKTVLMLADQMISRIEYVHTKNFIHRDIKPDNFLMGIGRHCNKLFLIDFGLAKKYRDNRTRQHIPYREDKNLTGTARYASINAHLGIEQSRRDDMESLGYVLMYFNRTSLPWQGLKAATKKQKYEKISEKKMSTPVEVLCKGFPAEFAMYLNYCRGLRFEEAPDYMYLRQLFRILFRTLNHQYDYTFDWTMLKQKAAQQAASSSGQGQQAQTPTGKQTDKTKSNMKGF

For the compound `CCCNC(=O)c1cn2ncnc(Nc3cc(C(=O)NC4CC4)ccc3C)c2c1C` [BMS-582949, reference compound], the IC50 in assay [1] (setting [6]) is > 10000 nM.
For `Cc1c(F)cc(C(=O)NC2CC2)cc1-c1ccc(C(=O)NCC(C)(C)C)cn1` [Losmapimod, reference compound], in assay [1] (setting [6]), the IC50 is > 10000 nM. In assay [2] (added during the last 15 h of differentiation), the “effect on DUX4” value was “did not show any effect”.
On to `CN1CCN(c2ccc3nc(-c4ccc(F)cc4)c(-c4ccncc4)n3n2)CC1` [Nr. 2], for which the IC50 in assay [1] (Table 4, read-out: CK1 a IC50) was 65 nM; in assay [1] (Table 6, read-out: IC50 CK1α) it was 65 nM; in assay [3] (Table 4, read-out: CK1 d IC50), 29 nM; in assay [3] (Table 6, read-out: IC50 CK1δ), 29 nM; in assay [4] (Table 4, read-out: p38a IC50), 23 nM; in assay [4] (Table 6, read-out: IC50 p38α), 23 nM. For the same compound, the EC50 in assay [2] (setting [7]) and in assay [2] (setting [8]) was 340 nM in each case.
With `Cn1cc(-c2ccnc3c2C(=O)N(C2CCOCC2)C3)c(-c2ccc(F)cc2)n1` [Nr. 6], the EC50 in assay [2] (setting [7]) and in assay [2] (setting [8]) was 8100 nM throughout. Besides, the concentration for half-maximal inhibition (IC50) in assay [5] (Table 3, read-out: CK1 e IC50) amounted to 72.4 nM; in assay [5] (Table 4, read-out: CK1 e IC50) it was 72.4 nM.
For the compound `COCCN1Cc2nccc(-c3cn(C)nc3-c3ccc(F)cc3)c2C1=O` [Nr. 7], the IC50 in assay [3] (Table 6, read-out: IC50 CK1δ) came to 42 nM; in assay [5] (Table 6, read-out: IC50 CK1ε), 92 nM. In addition, the EC50 in assay [2] (setting [7]) and in assay [2] (setting [8]) was 5000 nM in each case.
As to `CNCc1cc(-c2cn(C)nc2-c2ccc(F)cc2)ccn1` [Nr. 9], the IC50 in assay [3] (Table 6, read-out: IC50 CK1δ) came out at 58 nM. In addition, the EC50 in assay [2] (15 h, read-out: EC50 for DUX4 repression) was 3100 to 5500 nM; in assay [2] (72 h, read-out: DUX4 EC50), 6400 nM.
On to `CC1(C)CN(c2ccc3nc(-c4ccccc4)c(-c4ccncc4)n3n2)CCN1` [Nr. 10], for which the EC50 in assay [2] (setting [7]) and in assay [2] (setting [8]) was 10 nM throughout.
With `CN1CCN(c2ccc3nc(-c4ccccc4)c(-c4ccncc4)n3n2)CC1` [Nr. 11], the EC50 in assay [2] (setting [7]) and in assay [2] (setting [8]) was 250 nM each time.
Turning to `c1ccc(-c2nc3ccc(N4CCNCC4)nn3c2-c2ccncc2)cc1` [Nr. 12], the half-maximal effective concentration (EC50) in assay [2] (setting [7]) and in assay [2] (setting [8]) was 50 nM each time.
With `c1ccc(-c2nc3ccc(N4CCC(N5CCCC5)CC4)nn3c2-c2ccncc2)cc1` [Nr. 13], the EC50 in assay [2] (setting [7]) and in assay [2] (setting [8]) was 310 nM in each case.
Regarding `Fc1ccc(-c2nc3ccc(N4CCC(N5CCCC5)CC4)nn3c2-c2ccncc2)cc1` [Nr. 14], the IC50 amounted to 270 nM in assay [1] (Table 4, read-out: CK1 a IC50); 270 nM in assay [1] (Table 6, read-out: IC50 CK1α); 45 nM in assay [3] (Table 4, read-out: CK1 d IC50); 45 nM in assay [3] (Table 6, read-out: IC50 CK1δ); 42 nM in assay [4] (Table 4, read-out: p38a IC50); 42 nM in assay [4] (Table 6, read-out: IC50 p38α). For the same compound, the concentration for a half-maximal effect (EC50) in assay [2] (setting [7]) and in assay [2] (setting [8]) was 390 nM each time.
Consider `Cn1cc(-c2ccnc3[nH]ccc23)c(-c2ccc(F)cc2)n1` [Nr. 16], for which the half-maximal inhibitory concentration (IC50) worked out at 196 nM in assay [1] (Table 4, read-out: CK1 a IC50); 196 nM in assay [1] (Table 6, read-out: IC50 CK1α); 16.9 nM in assay [3] (Table 4, read-out: CK1 d IC50); 17 nM in assay [3] (Table 6, read-out: IC50 CK1δ); 18 nM in assay [4] (IC50 p38α, Table 6); 17.9 nM in assay [4] (p38a IC50, Table 4). The EC50 in assay [2] (setting [7]) and in assay [2] (setting [8]) was 1200 nM in each case.
Take `Cn1cc(-c2ccncc2)c(-c2ccc(F)cc2)n1` [Nr. 17]: the IC50 in assay [1] (Table 4, read-out: CK1 a IC50) came out at 873 nM; in assay [1] (Table 6, read-out: IC50 CK1α), 873 nM; in assay [3] (Table 4, read-out: CK1 d IC50) it was 36.1 nM; in assay [3] (Table 6, read-out: IC50 CK1δ), 36 nM; in assay [4] (Table 4, read-out: p38a IC50) it was 63.2 nM; in assay [4] (Table 6, read-out: IC50 p38α), 63 nM. Moreover, the EC50 in assay [2] (setting [7]) and in assay [2] (setting [8]) was 2900 nM throughout.
For the compound `Cn1cc(-c2ccnc(N)n2)c(-c2ccc(F)cc2)n1` [Nr. 18], the IC50 amounted to 636 nM in assay [1] (Table 4, read-out: CK1 a IC50); 636 nM in assay [1] (Table 6, read-out: IC50 CK1α); 46.5 nM in assay [3] (Table 4, read-out: CK1 d IC50); 46 nM in assay [3] (Table 6, read-out: IC50 CK1δ); 312 nM in assay [4] (Table 4, read-out: p38a IC50); 312 nM in assay [4] (Table 6, read-out: IC50 p38α). Besides, the EC50 in assay [2] (setting [7]) and in assay [2] (setting [8]) was 8200 nM each time.
